The experiment has as its target T1, CK1α (Homo sapiens, UniProt P48729+Q96SW2).
T1 construct: expressed in transfected cells
Nature of the experiment: CK1α ePL degradation assay in MDS-L cells. Type of experiment: cell-based. To be noted: MDS-L cells expressing ePL-tagged CK1α; for DC50: concentration giving 50% CK1α degradation vs DMSO control; for Y: lowest measured CK1α level normalized to DMSO control. The procedure, abridged:
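MDS-L cells treated with compound in a 10-point, 3-fold series from 10 μM to 0.0005 μM at 37° C, 5% CO2 for the indicated times; CK1α measured by InCELL Hunter enzyme-fragment luminescence. Levels normalized to DMSO as percent of control; lowest level reached taken as Y value.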

For 24 compounds, DC50 and Y results are on record in patent US11306101B2 (Celgene Corporation, priority 2019, dated 2022).

T1 sequence (P48729 whole entry): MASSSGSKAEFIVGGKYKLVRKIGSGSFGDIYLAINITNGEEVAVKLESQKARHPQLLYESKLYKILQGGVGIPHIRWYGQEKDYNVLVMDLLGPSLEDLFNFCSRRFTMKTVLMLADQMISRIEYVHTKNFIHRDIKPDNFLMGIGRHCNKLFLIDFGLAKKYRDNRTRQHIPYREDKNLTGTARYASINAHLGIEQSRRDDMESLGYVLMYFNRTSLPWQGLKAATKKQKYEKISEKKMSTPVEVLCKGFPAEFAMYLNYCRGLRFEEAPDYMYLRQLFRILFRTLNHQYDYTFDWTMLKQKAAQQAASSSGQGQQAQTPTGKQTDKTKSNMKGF
T1 sequence (Q96SW2 whole entry): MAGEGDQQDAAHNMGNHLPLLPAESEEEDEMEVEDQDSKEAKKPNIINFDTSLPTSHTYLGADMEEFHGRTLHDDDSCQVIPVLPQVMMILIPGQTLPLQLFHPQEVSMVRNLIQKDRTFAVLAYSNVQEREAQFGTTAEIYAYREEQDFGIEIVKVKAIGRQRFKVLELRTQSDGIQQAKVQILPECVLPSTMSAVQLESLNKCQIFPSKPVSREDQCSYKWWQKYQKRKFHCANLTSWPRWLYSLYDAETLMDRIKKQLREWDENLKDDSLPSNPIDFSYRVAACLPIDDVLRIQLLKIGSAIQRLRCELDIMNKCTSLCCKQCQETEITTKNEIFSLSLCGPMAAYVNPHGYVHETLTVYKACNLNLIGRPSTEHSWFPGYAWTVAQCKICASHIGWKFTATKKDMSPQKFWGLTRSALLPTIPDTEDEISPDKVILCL
T1 sequence (Q16531 whole entry partner): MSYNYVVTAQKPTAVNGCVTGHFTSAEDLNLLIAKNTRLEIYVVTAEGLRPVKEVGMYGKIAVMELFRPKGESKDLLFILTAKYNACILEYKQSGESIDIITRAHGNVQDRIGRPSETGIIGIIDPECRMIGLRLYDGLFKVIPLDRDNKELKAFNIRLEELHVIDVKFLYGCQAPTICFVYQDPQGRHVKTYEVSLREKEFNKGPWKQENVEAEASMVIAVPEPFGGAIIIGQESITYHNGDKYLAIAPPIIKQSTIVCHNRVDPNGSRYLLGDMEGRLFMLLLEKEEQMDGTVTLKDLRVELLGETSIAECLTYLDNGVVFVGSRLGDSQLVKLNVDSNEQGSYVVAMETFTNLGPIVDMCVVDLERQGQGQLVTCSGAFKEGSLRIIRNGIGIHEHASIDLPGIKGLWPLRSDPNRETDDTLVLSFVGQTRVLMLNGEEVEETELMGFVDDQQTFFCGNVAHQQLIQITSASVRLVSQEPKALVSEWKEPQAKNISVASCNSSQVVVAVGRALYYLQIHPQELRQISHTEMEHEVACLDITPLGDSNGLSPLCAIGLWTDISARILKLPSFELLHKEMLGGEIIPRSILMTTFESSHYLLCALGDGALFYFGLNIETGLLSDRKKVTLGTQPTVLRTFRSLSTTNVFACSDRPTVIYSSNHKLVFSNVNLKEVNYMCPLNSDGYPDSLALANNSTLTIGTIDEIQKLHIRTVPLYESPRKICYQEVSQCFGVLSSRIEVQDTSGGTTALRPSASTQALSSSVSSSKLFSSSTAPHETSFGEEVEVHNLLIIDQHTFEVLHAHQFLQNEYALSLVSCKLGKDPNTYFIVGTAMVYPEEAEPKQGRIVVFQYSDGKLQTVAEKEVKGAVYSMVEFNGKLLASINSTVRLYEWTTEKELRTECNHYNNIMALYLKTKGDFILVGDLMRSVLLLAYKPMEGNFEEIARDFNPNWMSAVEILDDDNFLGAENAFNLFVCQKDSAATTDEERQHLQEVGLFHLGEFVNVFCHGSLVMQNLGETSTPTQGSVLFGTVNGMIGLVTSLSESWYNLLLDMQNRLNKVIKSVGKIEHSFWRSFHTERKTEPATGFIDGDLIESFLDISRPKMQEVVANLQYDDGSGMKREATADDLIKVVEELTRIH

In the case of `O=C1CCC(N2Cc3cc(C(=O)N[C@H](c4ccccc4C(F)(F)F)C(F)(F)F)c(F)cc3C2=O)C(=O)N1` (stereo partly drawn) [Example 88, 2-(2,6-dioxopiperidin-3-yl)-6-fluoro-1-oxo-N-((R)-2,2,2-trifluoro-1-(2-(trifluoromethyl)phenyl)ethyl)isoindoline-5-carboxamide], the DC50 was < 0.1 µM and the Y result is “* (a Y value (shown as *) of 0<Y≤20%)”.

Consider `O=C1CCC(N2Cc3c(ccc(C(=O)N[C@H](c4ccccc4)C(F)(F)F)c3F)C2=O)C(=O)N1` (stereo partly drawn) [Example 89, 2-(2,6-dioxopiperidin-3-yl)-4-fluoro-1-oxo-N-((R)-2,2,2-trifluoro-1-phenylethyl)isoindoline-5-carboxamide], for which the DC50 is < 0.1 µM and the Y entry is on record as “** (a Y value (shown as**) of 20%<Y≤35%)”.

As for `O=C1CCC(N2Cc3cc(C(=O)N[C@H](c4cccc(C(F)(F)F)c4)C(F)(F)F)c(F)cc3C2=O)C(=O)N1` (stereo partly drawn) [Example 90, 2-(2,6-dioxopiperidin-3-yl)-6-fluoro-1-oxo-N-((R)-2,2,2-trifluoro-1-(3-(trifluoromethyl)phenyl)ethyl)isoindoline-5-carboxamide], the DC50 is 0.1 to 0.5 µM and the Y entry is reported as “** (a Y value (shown as**) of 20%<Y≤35%)”.

Consider `O=C1CCC(N2Cc3cc(C(=O)N[C@H](c4ccc(Cl)cc4)C(F)(F)F)c(F)cc3C2=O)C(=O)N1` (stereo partly drawn) [Example 91, N-((R)-1-(4-chlorophenyl)-2,2,2-trifluoroethyl)-2-(2,6-dioxopiperidin-3-yl)-6-fluoro-1-oxoisoindoline-5-carboxamide], for which the DC50 is < 0.1 µM and the Y result was “** (a Y value (shown as**) of 20%<Y≤35%)”.

Turning to `O=C1CCC(N2Cc3cc(C(=O)N[C@H](c4ccc(F)cc4)C(F)(F)F)c(F)cc3C2=O)C(=O)N1` (stereo partly drawn) [Example 92, 2-(2,6-dioxopiperidin-3-yl)-6-fluoro-1-oxo-N-((R)-2,2,2-trifluoro-1-(4-fluorophenyl)ethyl)isoindoline-5-carboxamide], the DC50 lay within 0.1 to 0.5 µM and the Y result is on record as “** (a Y value (shown as**) of 20%<Y≤35%)”.

Consider `O=C1CCC(N2Cc3c(ccc(C(=O)N[C@H](c4ccc(Cl)cc4)C(F)(F)F)c3F)C2=O)C(=O)N1` (stereo partly drawn) [Example 93, N-((R)-1-(4-chlorophenyl)-2,2,2-trifluoroethyl)-2-(2,6-dioxopiperidin-3-yl)-4-fluoro-1-oxoisoindoline-5-carboxamide], for which the DC50 was < 0.1 µM and the Y entry is recorded as “* (a Y value (shown as *) of 0<Y≤20%)”.

As for `CC1([C@@H](NC(=O)c2ccc3c(c2)CN(C2CCC(=O)NC2=O)C3=O)C(F)(F)F)COC1` (stereo partly drawn) [Example 94, 2-(2,6-dioxopiperidin-3-yl)-1-oxo-N-((R)-2,2,2-trifluoro-1-(3-methyloxetan-3-yl)ethyl)isoindoline-5-carboxamide], the DC50 was in the range of 0.1 to 0.5 µM and the Y result was “** (a Y value (shown as**) of 20%<Y≤35%)”.

Consider `CC(C)(CO)[C@@H](NC(=O)c1ccc2c(c1)CN(C1CCC(=O)NC1=O)C2=O)C(F)(F)F` (stereo partly drawn) [Example 95, 2-(2,6-dioxopiperidin-3-yl)-1-oxo-N-((R)-1,1,1-trifluoro-4-hydroxy-3,3-dimethylbutan-2-yl)isoindoline-5-carboxamide], for which the DC50 was in the range of 0.5 to 1 µM and the Y result is “** (a Y value (shown as**) of 20%<Y≤35%)”.

For `O=C1CCC(N2Cc3c(ccc(C(=O)N[C@H](c4ccc(F)cc4)C(F)(F)F)c3F)C2=O)C(=O)N1` (stereo partly drawn) [Example 96, 2-(2,6-dioxopiperidin-3-yl)-4-fluoro-1-oxo-N-((R)-2,2,2-trifluoro-1-(4-fluorophenyl)ethyl)isoindoline-5-carboxamide], the DC50 was < 0.1 µM and the Y result is recorded as “* (a Y value (shown as *) of 0<Y≤20%)”.

For the compound `O=C1CCC(N2Cc3c(ccc(C(=O)N[C@H](c4cccc(C(F)(F)F)c4)C(F)(F)F)c3F)C2=O)C(=O)N1` (stereo partly drawn) [Example 97, 2-(2,6-dioxopiperidin-3-yl)-4-fluoro-1-oxo-N-((R)-2,2,2-trifluoro-1-(3-(trifluoromethyl)phenyl)ethyl)isoindoline-5-carboxamide], the DC50 lay in the range of 0.1 to 0.5 µM and the Y result is “** (a Y value (shown as**) of 20%<Y≤35%)”.

Consider `O=C1CCC(N2Cc3c(ccc(C(=O)N[C@H](c4ccccc4C(F)(F)F)C(F)(F)F)c3F)C2=O)C(=O)N1` (stereo partly drawn) [Example 98, 2-(2,6-dioxopiperidin-3-yl)-4-fluoro-1-oxo-N-((R)-2,2,2-trifluoro-1-(2-(trifluoromethyl)phenyl)ethyl)isoindoline-5-carboxamide], for which the DC50 was < 0.1 µM and the Y entry is recorded as “* (a Y value (shown as *) of 0<Y≤20%)”.

Regarding `O=C1CCC(N2Cc3cc(C(=O)N[C@H](c4ccccc4F)C(F)(F)F)c(F)cc3C2=O)C(=O)N1` (stereo partly drawn) [Example 99, 2-(2,6-dioxopiperidin-3-yl)-6-fluoro-1-oxo-N-((R)-2,2,2-trifluoro-1-(2-fluorophenyl)ethyl)isoindoline-5-carboxamide], the DC50 was 0.1 to 0.5 µM and the Y result was “** (a Y value (shown as**) of 20%<Y≤35%)”.

Take `O=C1CCC(N2Cc3c(ccc(C(=O)N[C@H](c4ccccc4F)C(F)(F)F)c3F)C2=O)C(=O)N1` (stereo partly drawn) [Example 100, 2-(2,6-dioxopiperidin-3-yl)-4-fluoro-1-oxo-N-((R)-2,2,2-trifluoro-1-(2-fluorophenyl)ethyl)isoindoline-5-carboxamide]: the DC50 lay within 0.1 to 0.5 µM and the Y entry is recorded as “* (a Y value (shown as *) of 0<Y≤20%)”.

As to `O=C1CCC(N2Cc3cc(C(=O)N[C@H](c4ccc(O)cc4)C(F)(F)F)ccc3C2=O)C(=O)N1` (stereo partly drawn) [Example 101, 2-(2,6-dioxopiperidin-3-yl)-1-oxo-N-((R)-2,2,2-trifluoro-1-(4-hydroxyphenyl)ethyl)isoindoline-5-carboxamide], the DC50 is < 0.1 µM and the Y entry was “* (a Y value (shown as *) of 0<Y≤20%)”.

Turning to `CC(C)Oc1cccc([C@@H](NC(=O)c2ccc3c(c2)CN(C2CCC(=O)NC2=O)C3=O)C(F)(F)F)c1` (stereo partly drawn) [Example 102, 2-(2,6-dioxopiperidin-3-yl)-1-oxo-N-((R)-2,2,2-trifluoro-1-(3-isopropoxyphenyl)ethyl)isoindoline-5-carboxamide], the DC50 is < 0.1 µM and the Y entry is recorded as “** (a Y value (shown as**) of 20%<Y≤35%)”.

In the case of `O=C1CC[C@H](N2Cc3cc(C(=O)N[C@H](c4ccc(F)cc4)C(F)(F)F)ccc3C2=O)C(=O)N1` [Example 103, 2-((S)-2,6-dioxopiperidin-3-yl)-1-oxo-N-((R)-2,2,2-trifluoro-1-(4-fluorophenyl)ethyl)isoindoline-5-carboxamide], the 50% degradation concentration (DC50) was < 0.1 µM and the Y result is given as “* (a Y value (shown as *) of 0<Y≤20%)”.

Consider `O=C1CC[C@@H](N2Cc3cc(C(=O)N[C@H](c4ccc(F)cc4)C(F)(F)F)ccc3C2=O)C(=O)N1` [Example 104, 2-((R)-2,6-dioxopiperidin-3-yl)-1-oxo-N-((R)-2,2,2-trifluoro-1-(4-fluorophenyl)ethyl)isoindoline-5-carboxamide], for which the DC50 is < 0.1 µM and the Y entry is on record as “* (a Y value (shown as *) of 0<Y≤20%)”.

For the compound `O=C1CCC(N2Cc3c(ccc(C(=O)N[C@H](c4ccc(F)cc4F)C(F)(F)F)c3F)C2=O)C(=O)N1` (stereo partly drawn) [Example 105, N-((R)-1-(2,4-difluorophenyl)-2,2,2-trifluoroethyl)-2-(2,6-dioxopiperidin-3-yl)-4-fluoro-1-oxoisoindoline-5-carboxamide], the DC50 is < 0.1 µM and the Y result is on record as “* (a Y value (shown as *) of 0<Y≤20%)”.

In the case of `O=C1CCC(N2Cc3cc(C(=O)N[C@H](c4ncccc4Cl)C(F)(F)F)ccc3C2=O)C(=O)N1` (stereo partly drawn) [Example 106, N-((R)-1-(3-chloropyridin-2-yl)-2,2,2-trifluoroethyl)-2-(2,6-dioxopiperidin-3-yl)-1-oxoisoindoline-5-carboxamide], the DC50 is < 0.1 µM and the Y result is listed as “* (a Y value (shown as *) of 0<Y≤20%)”.

On to `O=C1CCC(N2Cc3c(ccc(C(=O)N[C@H](c4cccc(Cl)c4)C(F)(F)F)c3F)C2=O)C(=O)N1` (stereo partly drawn) [Example 107, N-((R)-1-(3-chlorophenyl)-2,2,2-trifluoroethyl)-2-(2,6-dioxopiperidin-3-yl)-4-fluoro-1-oxoisoindoline-5-carboxamide], for which the DC50 was in the range of 0.1 to 0.5 µM and the Y entry was “** (a Y value (shown as**) of 20%<Y≤35%)”.

Consider `O=C1CCC(N2Cc3c(ccc(C(=O)N[C@H](c4cccc(F)c4)C(F)(F)F)c3F)C2=O)C(=O)N1` (stereo partly drawn) [Example 108, 2-(2,6-dioxopiperidin-3-yl)-4-fluoro-1-oxo-N-((R)-2,2,2-trifluoro-1-(3-fluorophenyl)ethyl)isoindoline-5-carboxamide], for which the DC50 fell in the range of 0.1 to 0.5 µM and the Y entry is “** (a Y value (shown as**) of 20%<Y≤35%)”.

Take `O=C1CCC(N2Cc3cc(C(=O)N[C@H](c4ccc(Cl)cn4)C(F)(F)F)ccc3C2=O)C(=O)N1` (stereo partly drawn) [Example 109, N-((R)-1-(5-chloropyridin-2-yl)-2,2,2-trifluoroethyl)-2-(2,6-dioxopiperidin-3-yl)-1-oxoisoindoline-5-carboxamide]: the DC50 is < 0.1 µM and the Y result is recorded as “* (a Y value (shown as *) of 0<Y≤20%)”.

Consider `O=C1CCC(N2Cc3cc(C(=O)N[C@H](c4ncccc4F)C(F)(F)F)ccc3C2=O)C(=O)N1` (stereo partly drawn) [Example 110, 2-(2,6-dioxopiperidin-3-yl)-1-oxo-N-((R)-2,2,2-trifluoro-1-(3-fluoropyridin-2-yl)ethyl)isoindoline-5-carboxamide], for which the DC50 was < 0.1 µM and the Y entry is on record as “* (a Y value (shown as *) of 0<Y≤20%)”.

`O=C1CCC(N2Cc3cc(C(=O)N[C@H](c4ccc(F)cc4)C(F)F)ccc3C2=O)C(=O)N1` (stereo partly drawn) [Example 111, N-((R)-2,2-difluoro-1-(4-fluorophenyl)ethyl)-2-(2,6-dioxopiperidin-3-yl)-1-oxoisoindoline-5-carboxamide]: the half-maximal degradation concentration (DC50) was < 0.1 µM and the Y result is “* (a Y value (shown as *) of 0<Y≤20%)”.
